Reference: ChEMBL document CHEMBL5120971, “Network Pharmacology Research and Dual-omic Analyses Reveal the Molecular Mechanism of Natural Product Nodosin Inhibiting Muscle-Invasive Bladder Cancer in Vitro and in Vivo” (J Nat Prod, 2022)
The source made the active and inactive calls. No cut-off for these calls is given here.

Legend:
T-24 [1] = experiment: Cytotoxicity against human T24 cells assessed as reduction in cell growth measured after 24 hrs by live/dead staining based fluorescence assay; assay type: functional; settings: dose 4-10 µM, DDE = dose-dependent effect
T-24 [2] = experiment: Cytotoxicity against human T24 cells assessed as reduction in cell growth by CCK8 assay; assay type: functional, cell-based
UMUC3 = experiment: Cytotoxicity against human UMUC3 cells assessed as reduction in cell growth at 4 uM by CCK8 assay; assay type: functional, cell-based; settings: time 24-72 hrs, TDE = time-dependent effect
T-24 [3] = experiment: Induction of morphological changes in human T24 cells assessed as reduction in cell adherence at 4 to 12 uM measured after 48 hrs by microscopy; assay type: functional, cell-based; settings: dose 4-12 µM
T-24 [4] = experiment: Induction of morphological changes in human T24 cells assessed as cell shrinkage at 4 to 12 uM measured after 48 hrs by microscopy; assay type: functional, cell-based; settings: dose 4-12 µM
T-24 [5] = experiment: Antiproliferative activity against human T24 cells assessed as reduction in Ki67 expression at 4 to 12 uM measured after 24 hrs by DAPI staining based immunofluorescence analysis; assay type: functional, cell-based; settings: dose 4-12 µM
T-24 [6] = experiment: Effect on RNF169 expression in human T24 cells at 6 uM measured after 24 to 30 hrs by proteomic analysis; assay type: functional, cell-based; settings: time 24-30 hrs
T-24 [7] = experiment: Effect on E2F6 expression in human T24 cells at 6 uM measured after 24 to 30 hrs by proteomic analysis; assay type: functional, cell-based; settings: time 24-30 hrs
T-24 [8] = experiment: Effect on MDC1 expression in human T24 cells at 6 uM measured after 24 to 30 hrs by proteomic analysis; assay type: functional, cell-based; settings: time 24-30 hrs
T-24 [9] = experiment: Effect on HLTF expression in human T24 cells at 6 uM measured after 24 to 30 hrs by proteomic analysis; assay type: functional, cell-based; settings: time 24-30 hrs
T-24 [10] = experiment: Effect on DDB1 expression in human T24 cells at 6 uM measured after 24 to 30 hrs by proteomic analysis; assay type: functional, cell-based; settings: time 24-30 hrs
T-24 [11] = experiment: Effect on MSH2 expression in human T24 cells at 6 uM measured after 24 to 30 hrs by proteomic analysis; assay type: functional, cell-based; settings: time 24-30 hrs
T-24 [12] = experiment: Effect on RHOB expression in human T24 cells at 6 uM measured after 24 to 30 hrs by proteomic analysis; assay type: functional, cell-based; settings: time 24-30 hrs
T-24 [13] = experiment: Induction of apoptosis in human T24 cells assessed as viable cells at 4 uM measured after 48 hrs by Annexin V-FITC/propidium iodide staining based flow cytometry (reference value: 97.49%); assay type: functional; settings: read-out: Activity
T-24 [14] = experiment: Induction of apoptosis in human T24 cells assessed as late apoptotic cells at 4 uM measured after 48 hrs by Annexin V-FITC/propidium iodide staining based flow cytometry (reference value: 0.74%); assay type: functional
T-24 [15] = experiment: Induction of apoptosis in human T24 cells assessed as necrotic cells at 6 uM measured after 48 hrs by Annexin V-FITC/propidium iodide staining based flow cytometry (reference value: 0.57%); assay type: functional
T-24 [16] = experiment: Induction of apoptosis in human T24 cells assessed as viable cells at 8 uM measured after 48 hrs by Annexin V-FITC/propidium iodide staining based flow cytometry (reference value: 97.49%); assay type: functional; settings: read-out: Activity
T-24 [17] = experiment: Induction of apoptosis in human T24 cells assessed as late apoptotic cells at 8 uM measured after 48 hrs by Annexin V-FITC/propidium iodide staining based flow cytometry (reference value: 0.74%); assay type: functional
T-24 [18] = experiment: Up regulation of HMOX1 expression in human T24 cells at 6 uM measured after 24 to 30 hrs by proteomic analysis; assay type: functional, cell-based; settings: time 24-30 hrs
T-24 [19] = experiment: Induction of apoptosis in human T24 cells assessed as effect on G0S2 expression at 6 uM measured after 24 to 30 hrs by proteomic analysis; assay type: functional, cell-based; settings: time 24-30 hrs
T-24 [20] = experiment: Induction of apoptosis in human T24 cells assessed as effect on DHCR24 expression at 6 uM measured after 24 to 30 hrs by proteomic analysis; assay type: functional, cell-based; settings: time 24-30 hrs
T-24 [21] = experiment: Induction of autophagy in human T24 cells assessed as up regulation of SQSTM1 expression at 6 uM measured after 24 to 30 hrs by proteomic analysis; assay type: functional, cell-based; settings: time 24-30 hrs
T-24 [22] = experiment: Induction of autophagy in human T24 cells assessed as effect on PRKAA2 gene expression at 6 uM measured after 12 to 18 hrs by transcriptome analysis; assay type: functional, cell-based; settings: time 12-18 hrs
T-24 [23] = experiment: Induction of autophagy in human T24 cells assessed as effect on SQSTM1 gene expression at 6 uM measured after 12 to 18 hrs by transcriptome analysis; assay type: functional, cell-based; settings: time 12-18 hrs
T-24 [24] = experiment: Induction of autophagy in human T24 cells assessed as effect on RAB24 gene expression at 6 uM measured after 12 to 18 hrs by transcriptome analysis; assay type: functional, cell-based; settings: time 12-18 hrs
T-24 [25] = experiment: Induction of autophagy in human T24 cells assessed as effect on LGALS8 gene expression at 6 uM measured after 12 to 18 hrs by transcriptome analysis; assay type: functional, cell-based; settings: time 12-18 hrs
T-24 [26] = experiment: Induction of autophagy in human T24 cells assessed as effect on OPTN gene expression at 12 to 18 uM measured after 24 to 30 hrs by analysis; assay type: functional, cell-based; settings: dose 12-18 µM, time 24-30 hrs
T-24 [27] = experiment: Induction of autophagy in human T24 cells assessed as effect on WDR41 gene expression at 6 uM measured after 12 to 18 hrs by transcriptome analysis; assay type: functional, cell-based; settings: time 12-18 hrs
T-24 [28] = experiment: Induction of apoptosis in human T24 cells assessed as up regulation of SQSTM1 expression at 6 to 12 uM measured after 24 hrs by immunofluorescence analysis; assay type: functional, cell-based; settings: dose 6-12 µM
T-24 [29] = experiment: Induction of apoptosis in human T24 cells assessed as up regulation of LC3 expression at 6 to 12 uM measured after 24 hrs by immunofluorescence analysis; assay type: functional, cell-based; settings: dose 6-12 µM
T-24 [30] = experiment: Induction of cell membrane disruption in human T24 cells at 4 to 8 uM measured after 48 hrs by transmission electron microscopy; assay type: cell-based; settings: dose 4-8 µM
T-24 [31] = experiment: Up regulation of FTL gene expression in human T24 cells at 6 uM measured after 12 to 18 hrs by transcriptome analysis; assay type: functional, cell-based; settings: time 12-18 hrs
T-24 [32] = experiment: Up regulation of SLC7A11 gene expression in human T24 cells at 6 uM measured after 12 to 18 hrs by transcriptome analysis; assay type: functional, cell-based; settings: time 12-18 hrs
T-24 [33] = experiment: Up regulation of AIFM2 gene expression in human T24 cells at 6 uM measured after 12 to 18 hrs by transcriptome analysis; assay type: functional, cell-based; settings: time 12-18 hrs
T-24 [34] = experiment: Up regulation of SLC7A11 expression in human T24 cells at 6 uM measured after 24 to 30 hrs by proteomic analysis; assay type: functional, cell-based; settings: time 24-30 hrs
T-24 [35] = experiment: Antimigratory activity against human T24 cells assessed as down regulation of NEXN expression at 6 uM measured after 24 to 30 hrs by proteomic analysis; assay type: functional, cell-based; settings: time 24-30 hrs
T-24 [36] = experiment: Antimigratory activity against human T24 cells assessed as down regulation of CFL2 expression at 6 uM measured after 24 to 30 hrs by proteomic analysis; assay type: functional, cell-based; settings: time 24-30 hrs
T-24 [37] = experiment: Antimigratory activity against human T24 cells assessed as down regulation of PALLD expression at 6 uM measured after 24 to 30 hrs by proteomic analysis; assay type: functional, cell-based; settings: time 24-30 hrs
T-24 [38] = experiment: Antitumor activity against human T24 cells xenografted in BALB/c mouse assessed as reduction in tumor growth at 2 mg/kg, ip administered at 2 days interval; assay type: functional, organism-based
T-24 [39] = experiment: Antitumor activity against human T24 cells xenografted in BALB/c mouse assessed as reduction in tumor weight at 2 mg/kg, ip administered at 2 days interval; assay type: functional, organism-based

C=C1C(=O)[C@]23C[C@H]1C[C@@H](O)[C@H]2[C@@]12CO[C@@H](O)[C@@H]1C(C)(C)CC[C@@H]2OC3=O [NODOSIN]
Activity (T-24 [1]): Dde
IC50 (T-24 [2]): 4.91 µM
Activity (T-24 [2]; DDE = dose-dependent effect): Dde
Activity (UMUC3): Tde
Activity (T-24 [3]): Active
Activity (T-24 [4]): Active
Activity (T-24 [5]): Active
Activity (T-24 [6]): Active
Activity (T-24 [7]): Active
Activity (T-24 [8]): Active
Activity (T-24 [9]): Active
Activity (T-24 [10]): Active
Activity (T-24 [11]): Active
Activity (T-24 [12]): Active
viability at 4 µM (T-24 [13]): 96.1%
Activity (T-24 [14]): 1.34%
Activity (T-24 [15]): 0.4%
viability at 8 µM (T-24 [16]): 75.9%
Activity (T-24 [17]): 13.17%
Activity (T-24 [18]): Active
Activity (T-24 [19]): Active
Activity (T-24 [20]): Active
Activity (T-24 [21]): Active
Activity (T-24 [22]): Active
Activity (T-24 [23]): Active
Activity (T-24 [24]): Active
Activity (T-24 [25]): Active
Activity (T-24 [26]): Active
Activity (T-24 [27]): Active
Activity (T-24 [28]): Active
Activity (T-24 [29]): Active
Activity (T-24 [30]): Active
Activity (T-24 [31]): Active
Activity (T-24 [32]): Active
Activity (T-24 [33]): Active
Activity (T-24 [34]): Active
Activity (T-24 [35]): Active
Activity (T-24 [36]): Active
Activity (T-24 [37]): Active
Activity (T-24 [38]): Active
Activity (T-24 [39]): Active
